The values below come from article PMC3445516 (PLoS ONE, 2012).

Read-outs that look alike come from different tables or passages of the source.

Holding throughout (test): Ambit kinase profiling, competition binding
One experiment addresses T1, MARK2 (Homo sapiens, UniProt Q7KZI7).
T1 construct: purchased Ambit Biosciences (KINOMEscan)
As for the experimental part: (§1) Also included in the kinase profile are four isoforms of PKC (δ, ε, η, θ) and eight isoforms of CAMKs (CAMKIα, δ, γ; CAMKIIα, β, δ, γ; CAMK4).
(§2) The global kinase profiling experiment was performed by Ambit Biosciences.

In a further experiment the target is T2, STK35 (Homo sapiens, UniProt Q8TDR2).
T2 construct: purchased Ambit Biosciences (KINOMEscan)
T2 sequence (Q8TDR2 whole entry): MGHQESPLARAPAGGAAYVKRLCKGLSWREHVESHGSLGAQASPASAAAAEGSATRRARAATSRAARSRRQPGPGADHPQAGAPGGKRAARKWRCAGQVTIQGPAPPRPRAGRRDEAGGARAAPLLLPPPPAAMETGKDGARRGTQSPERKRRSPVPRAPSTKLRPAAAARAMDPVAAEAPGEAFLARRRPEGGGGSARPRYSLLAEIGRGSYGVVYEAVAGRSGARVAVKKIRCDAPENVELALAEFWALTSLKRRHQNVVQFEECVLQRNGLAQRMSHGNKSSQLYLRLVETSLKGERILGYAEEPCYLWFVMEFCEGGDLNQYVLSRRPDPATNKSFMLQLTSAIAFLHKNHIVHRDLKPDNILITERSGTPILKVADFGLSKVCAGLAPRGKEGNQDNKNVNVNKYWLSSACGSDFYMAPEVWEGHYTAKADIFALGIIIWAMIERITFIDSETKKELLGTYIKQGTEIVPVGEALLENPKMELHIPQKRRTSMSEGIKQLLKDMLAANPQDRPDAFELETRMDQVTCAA
As for the experimental part: as §1, §2

The target in the next experiment is T3, ROCK2 (Homo sapiens, UniProt O75116).
T3 construct: purchased Ambit Biosciences (KINOMEscan)
The method, then:
as §1, §2

The next experiment has as its target T4, ADCK4 (Homo sapiens, UniProt Q96D53).
T4 construct: purchased Ambit Biosciences (KINOMEscan)
T4 sequence (Q96D53 1-544): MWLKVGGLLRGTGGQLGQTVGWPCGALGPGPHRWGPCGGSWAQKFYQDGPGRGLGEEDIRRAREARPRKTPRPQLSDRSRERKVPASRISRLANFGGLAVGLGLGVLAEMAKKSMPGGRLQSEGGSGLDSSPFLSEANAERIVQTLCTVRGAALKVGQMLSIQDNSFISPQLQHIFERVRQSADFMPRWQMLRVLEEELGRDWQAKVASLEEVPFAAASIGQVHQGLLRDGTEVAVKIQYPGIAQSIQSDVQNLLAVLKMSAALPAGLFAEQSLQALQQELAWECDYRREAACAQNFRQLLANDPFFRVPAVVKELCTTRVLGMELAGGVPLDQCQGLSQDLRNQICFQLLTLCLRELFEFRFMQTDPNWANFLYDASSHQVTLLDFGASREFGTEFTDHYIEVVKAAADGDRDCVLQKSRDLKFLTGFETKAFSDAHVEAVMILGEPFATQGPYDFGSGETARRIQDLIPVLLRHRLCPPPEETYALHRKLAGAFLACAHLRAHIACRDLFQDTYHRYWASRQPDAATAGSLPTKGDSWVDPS
As for the experimental part: as §1, §2

The target in another experiment is T5, DMPK2 (Homo sapiens, UniProt Q6DT37).
T5 construct: purchased Ambit Biosciences (KINOMEscan)
T5 sequence (Q6DT37 whole entry): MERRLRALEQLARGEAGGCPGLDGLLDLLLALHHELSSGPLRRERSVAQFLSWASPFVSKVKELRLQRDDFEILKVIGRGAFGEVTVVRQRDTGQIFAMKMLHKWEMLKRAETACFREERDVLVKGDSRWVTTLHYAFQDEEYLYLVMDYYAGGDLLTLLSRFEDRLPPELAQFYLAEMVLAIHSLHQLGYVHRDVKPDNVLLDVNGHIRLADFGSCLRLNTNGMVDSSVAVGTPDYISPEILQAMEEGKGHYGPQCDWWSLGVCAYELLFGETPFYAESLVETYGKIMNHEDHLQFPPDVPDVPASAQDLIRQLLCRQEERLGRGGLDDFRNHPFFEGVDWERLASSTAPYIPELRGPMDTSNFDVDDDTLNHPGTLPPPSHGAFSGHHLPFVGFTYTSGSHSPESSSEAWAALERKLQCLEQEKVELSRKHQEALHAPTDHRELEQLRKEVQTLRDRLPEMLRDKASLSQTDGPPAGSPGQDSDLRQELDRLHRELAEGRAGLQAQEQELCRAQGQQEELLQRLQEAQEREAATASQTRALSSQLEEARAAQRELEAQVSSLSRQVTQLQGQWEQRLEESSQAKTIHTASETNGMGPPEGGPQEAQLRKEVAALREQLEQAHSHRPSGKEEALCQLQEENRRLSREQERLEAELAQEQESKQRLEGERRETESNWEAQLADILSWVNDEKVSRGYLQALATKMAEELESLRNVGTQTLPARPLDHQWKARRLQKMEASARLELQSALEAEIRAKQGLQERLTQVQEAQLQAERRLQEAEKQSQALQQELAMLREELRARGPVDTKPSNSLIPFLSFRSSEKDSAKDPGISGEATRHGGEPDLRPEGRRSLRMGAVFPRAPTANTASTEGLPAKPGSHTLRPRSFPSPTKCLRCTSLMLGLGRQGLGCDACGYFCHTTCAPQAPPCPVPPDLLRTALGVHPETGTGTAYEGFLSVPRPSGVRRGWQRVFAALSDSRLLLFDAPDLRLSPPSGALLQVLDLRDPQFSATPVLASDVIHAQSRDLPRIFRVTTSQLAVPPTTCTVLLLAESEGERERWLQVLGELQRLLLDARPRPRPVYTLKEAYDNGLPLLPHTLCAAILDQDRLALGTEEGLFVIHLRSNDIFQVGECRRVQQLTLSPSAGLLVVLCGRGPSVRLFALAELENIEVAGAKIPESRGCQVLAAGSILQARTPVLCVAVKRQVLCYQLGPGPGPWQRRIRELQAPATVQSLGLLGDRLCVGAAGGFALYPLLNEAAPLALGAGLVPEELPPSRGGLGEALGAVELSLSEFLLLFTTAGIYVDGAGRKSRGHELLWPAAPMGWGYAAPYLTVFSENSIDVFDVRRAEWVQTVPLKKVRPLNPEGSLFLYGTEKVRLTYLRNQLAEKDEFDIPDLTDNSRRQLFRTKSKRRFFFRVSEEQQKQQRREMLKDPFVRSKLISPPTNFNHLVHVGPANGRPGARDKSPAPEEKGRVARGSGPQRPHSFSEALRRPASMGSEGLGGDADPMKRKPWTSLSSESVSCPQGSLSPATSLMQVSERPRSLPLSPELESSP
The method, then:
as §1, §2

The target in another experiment is T6, MEK6 (Homo sapiens, UniProt P52564).
T6 construct: purchased Ambit Biosciences (KINOMEscan)
T6 sequence (P52564 1-334): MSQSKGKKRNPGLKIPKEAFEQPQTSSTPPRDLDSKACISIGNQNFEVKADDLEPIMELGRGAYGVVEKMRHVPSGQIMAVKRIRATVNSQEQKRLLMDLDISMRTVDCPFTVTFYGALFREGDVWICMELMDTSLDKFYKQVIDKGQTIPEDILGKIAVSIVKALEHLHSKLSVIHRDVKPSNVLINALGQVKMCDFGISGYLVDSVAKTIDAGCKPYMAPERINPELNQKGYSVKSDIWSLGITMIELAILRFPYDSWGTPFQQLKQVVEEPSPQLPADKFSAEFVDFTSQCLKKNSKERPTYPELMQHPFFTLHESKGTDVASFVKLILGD
As for the experimental part:
as §1, §2

Another experiment deals with T7, CAMKIδ (Homo sapiens, UniProt Q8IU85).
T7 construct: purchased Ambit Biosciences (KINOMEscan)
T7 sequence (Q8IU85 whole entry): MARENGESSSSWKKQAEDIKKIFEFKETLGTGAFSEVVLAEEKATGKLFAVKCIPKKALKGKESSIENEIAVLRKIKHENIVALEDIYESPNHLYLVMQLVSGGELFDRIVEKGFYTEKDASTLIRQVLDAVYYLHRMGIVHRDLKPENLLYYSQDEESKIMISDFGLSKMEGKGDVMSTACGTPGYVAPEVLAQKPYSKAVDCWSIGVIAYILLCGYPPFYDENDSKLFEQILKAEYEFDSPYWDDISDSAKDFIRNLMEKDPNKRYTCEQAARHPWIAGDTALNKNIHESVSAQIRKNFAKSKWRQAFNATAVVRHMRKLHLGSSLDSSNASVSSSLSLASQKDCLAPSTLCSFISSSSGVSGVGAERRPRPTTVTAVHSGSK
As to conditions: for competition: CAMKIδ, 10 µM. As for the experimental part:
as §1, §2

A further experiment has as its target T8, ACVR1B (Homo sapiens, UniProt P36896).
T8 construct: purchased Ambit Biosciences (KINOMEscan)
T8 sequence (P36896 24-505): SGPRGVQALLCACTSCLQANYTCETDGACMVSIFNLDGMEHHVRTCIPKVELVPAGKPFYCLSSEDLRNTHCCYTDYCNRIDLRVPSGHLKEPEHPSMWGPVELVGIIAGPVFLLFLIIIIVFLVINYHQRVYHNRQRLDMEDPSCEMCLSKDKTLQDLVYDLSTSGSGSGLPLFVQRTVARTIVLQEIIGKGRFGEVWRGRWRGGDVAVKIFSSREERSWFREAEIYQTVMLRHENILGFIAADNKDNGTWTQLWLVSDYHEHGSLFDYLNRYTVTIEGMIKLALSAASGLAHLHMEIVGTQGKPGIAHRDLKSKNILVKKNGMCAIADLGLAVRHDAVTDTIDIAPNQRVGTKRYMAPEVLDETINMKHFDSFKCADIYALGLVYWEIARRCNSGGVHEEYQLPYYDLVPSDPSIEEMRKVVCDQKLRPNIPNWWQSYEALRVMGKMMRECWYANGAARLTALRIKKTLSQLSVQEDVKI
The method, then:
as §1, §2

The next experiment addresses T9, GSK3A (Homo sapiens, UniProt P49840).
T9 construct: purchased Ambit Biosciences (KINOMEscan)
The method, then: as §1, §2

For a further experiment, the target named is T10, ERK2 (Homo sapiens, UniProt P28482).
T10 construct: purchased Ambit Biosciences (KINOMEscan)
T10 sequence (P28482 whole entry): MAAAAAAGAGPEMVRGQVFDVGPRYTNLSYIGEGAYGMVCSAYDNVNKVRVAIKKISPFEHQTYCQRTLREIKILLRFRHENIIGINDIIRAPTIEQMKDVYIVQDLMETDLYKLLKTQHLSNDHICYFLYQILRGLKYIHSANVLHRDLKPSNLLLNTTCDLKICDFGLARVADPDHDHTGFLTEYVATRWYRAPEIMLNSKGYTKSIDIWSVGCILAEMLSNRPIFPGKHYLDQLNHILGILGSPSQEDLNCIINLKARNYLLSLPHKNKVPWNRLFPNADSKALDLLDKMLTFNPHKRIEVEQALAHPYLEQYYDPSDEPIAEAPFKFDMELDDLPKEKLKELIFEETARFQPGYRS
As for the experimental part: as §1, §2

T9 sequence (P49840 whole entry): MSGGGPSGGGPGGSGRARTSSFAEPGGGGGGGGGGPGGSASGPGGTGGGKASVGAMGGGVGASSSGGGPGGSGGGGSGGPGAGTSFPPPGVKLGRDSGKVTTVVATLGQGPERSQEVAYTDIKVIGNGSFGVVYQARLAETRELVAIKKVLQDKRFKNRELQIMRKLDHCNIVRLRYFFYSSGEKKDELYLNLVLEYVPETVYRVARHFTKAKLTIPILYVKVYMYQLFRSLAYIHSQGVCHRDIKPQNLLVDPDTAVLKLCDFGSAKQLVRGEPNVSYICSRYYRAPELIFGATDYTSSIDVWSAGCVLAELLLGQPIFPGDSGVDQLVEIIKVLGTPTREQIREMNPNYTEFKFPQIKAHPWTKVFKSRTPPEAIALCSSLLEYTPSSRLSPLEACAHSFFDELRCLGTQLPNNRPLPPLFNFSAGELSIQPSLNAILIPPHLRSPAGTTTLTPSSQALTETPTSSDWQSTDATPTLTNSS
T1 sequence (Q7KZI7 whole entry): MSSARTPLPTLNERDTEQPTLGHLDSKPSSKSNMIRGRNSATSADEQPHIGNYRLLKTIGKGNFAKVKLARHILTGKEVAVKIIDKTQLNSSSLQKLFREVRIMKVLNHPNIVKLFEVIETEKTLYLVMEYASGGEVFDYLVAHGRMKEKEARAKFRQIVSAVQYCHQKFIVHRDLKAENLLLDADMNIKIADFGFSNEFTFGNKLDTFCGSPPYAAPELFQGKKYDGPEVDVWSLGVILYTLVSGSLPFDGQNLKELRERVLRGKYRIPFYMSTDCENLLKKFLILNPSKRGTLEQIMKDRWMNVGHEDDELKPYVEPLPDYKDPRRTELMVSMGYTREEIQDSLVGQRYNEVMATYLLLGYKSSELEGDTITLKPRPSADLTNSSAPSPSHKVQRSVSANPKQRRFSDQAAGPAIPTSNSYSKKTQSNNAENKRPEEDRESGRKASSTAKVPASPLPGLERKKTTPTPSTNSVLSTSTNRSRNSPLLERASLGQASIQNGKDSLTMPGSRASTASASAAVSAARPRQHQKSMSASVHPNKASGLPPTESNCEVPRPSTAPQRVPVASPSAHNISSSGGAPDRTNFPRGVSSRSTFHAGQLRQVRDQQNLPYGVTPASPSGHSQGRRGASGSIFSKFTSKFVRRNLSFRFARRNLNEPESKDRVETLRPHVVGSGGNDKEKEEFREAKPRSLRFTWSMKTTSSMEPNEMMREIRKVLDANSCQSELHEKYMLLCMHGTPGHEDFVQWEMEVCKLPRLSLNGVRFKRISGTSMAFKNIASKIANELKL

Take `Fc1ccc(-c2c(-c3ccncc3)[nH]c3nccnc23)cc1` [Compound 122]: the inhibition at 10 µM at MARK2 (MARK2, 10 µM, read-out: % Competition) worked out at 77%; on STK35 (STK35, 10 µM, read-out: % Competition), 79%; at ROCK2 (ROCK2, 10 µM, read-out: % Competition) it was 89%; on ADCK4 (ADCK4, 10 µM, read-out: % Competition) it was 94%; on DMPK2 (DMPK2, 10 µM, read-out: % Competition) it was 100%; at MEK6 (MEK6, 10 µM, read-out: % Competition), 66%. The inhibition at 10 µM at ACVR1B (ACVR1B, 10 µM, read-out: % Competition) came to 91%; on GSK3A (GSK3A, 10 µM, read-out: % Competition), 98%; at ERK2 (ERK2, 10 µM, read-out: % Competition), 87%. The same compound returned a competition at CAMKIδ below 50%.

Turning to `Fc1ccc(-c2c(-c3ccncc3)[nH]c3nccnc23)cc1` [RO1155697-000-005], the inhibition at 10 µM on MARK2 (MARK2, compound concentration 10 uM, read-out: Percent Competition) stood at 77%; at STK35 (STK35, compound concentration 10 uM, read-out: Percent Competition), 79%; at ROCK2 (ROCK2, compound concentration 10 uM, read-out: Percent Competition), 89%; on ADCK4 (ADCK4, compound concentration 10 uM, read-out: Percent Competition), 94%; on DMPK2 (DMPK2, compound concentration 10 uM, read-out: Percent Competition), 100%; at MEK6 (MEK6, compound concentration 10 uM, read-out: Percent Competition), 66%. Also, the inhibition at 10 µM at CAMKIδ (CAMK1D, compound concentration 10 uM, read-out: Percent Competition) was below 50%; at ACVR1B (ACVR1B, compound concentration 10 uM, read-out: Percent Competition), 91%; on GSK3A (GSK3A, compound concentration 10 uM, read-out: Percent Competition) it was 98%; on ERK2 (ERK2, compound concentration 10 uM, read-out: Percent Competition), 87%.

Turning to `CC(O)CNc1cc(-c2[nH]c3cccnc3c2-c2ccc(F)cc2)ccn1` (stereo not drawn) [Compound 140], the inhibition at 10 µM on MARK2 (read-out: % Competition) was below 50%; on STK35 (read-out: % Competition), below 50%; at ROCK2 (read-out: % Competition), below 50%; at ADCK4 (read-out: % Competition), 98%; at DMPK2 (read-out: % Competition) it was 74%; on MEK6 (read-out: % Competition), below 50%. For the same compound, the inhibition at 10 µM on ACVR1B (read-out: % Competition), at GSK3A (read-out: % Competition) and on ERK2 (read-out: % Competition) was below 50% in each case. Further, at CAMKIδ, the competition is recorded as below 50%.
